{"source": "patent US10786514B2", "about": "“Dosage regiment of ferric maltol” (Shield TX (UK) Limited, priority 2015, dated 2020)", "type_in_all_cases": "in vivo, human", "key": {"[1]": {"assay": "Phase I pharmacokinetic study: serum total iron concentration", "conditions": "for maximum mean serum total iron concentration: Day 1, iron-deficient subjects", "description": "(§1) These studies were primarily pharmacokinetic and conducted in subjects with iron deficiency having active inflammatory disease or acute chronic inflammation. An open-label, randomised, single and repeat dose parallel group Phase I pharmacokinetic study was carried out to evaluate the effect of single and repeated twice daily (bid) oral doses of ST10 at 30 mg, 60 mg and 90 mg for 8 days.\n(§2) 24 subjects with iron deficiency (with or without anaemia) were randomly allocated to one of the three ST10 dose groups as follows:\n(§3) Group 1: 9 subjects received ST10, 30 mg twice daily for 7 days (days 1-7) plus a final 30 mg dose on the morning of day 8.\n(§4) Group 2: 8 subjects received ST10, 60 mg twice daily for 7 days (days 1-7) plus a final 60 mg dose on the morning of day 8.\n(§5) Group 3: 7 subjects received ST10, 90 mg twice daily for 7 days (days 1-7) plus a final 90 mg dose on the morning of day 8.\n(§6) On day 1, following fasting for at least 1.5-2 hours beforehand, ST10 was administered (30 mg, 60 mg or 90 mg) and blood samples collected over the following 6 h for analysis. 60 mg was administered as two 30 mg capsules and 90 mg was administered as three 30 mg capsules, both as a single dose. Subjects continued dosing with ST10 on the evening of day 1 then every morning and evening for the next 6 days (Days 2 to 7).\nOn day 8 following fasting for at least 1.5-2 hours beforehand the last dosing of ST10 was administered (30 mg, 60 mg or 90 mg) and blood samples collected over the following 6 h for analysis.\nOn Days 1 and 8 blood samples were collected predose (0 h=time of ST10 dose) and at 5 minutes(for NTBI only), 15 minutes, 30 minutes, 45 minutes, and 1, 1.5, 2, 3, 4 and 6 h postdose.\nThese studies used transferrin saturation and total serum iron as measurements of iron uptake from the gut into the transport mechanisms. In addition serum ferritin was used as a measure of iron storage status at the end of the dosing period; all of these measurements are standard and well recognised.\nOne subject in the 60 mg dose group prematurely withdrew from the study on Day 7, so full profiles of all serum iron parameters were available in the 30 mg dose group for 9 subjects (days 1 and 8), in the 60 mg dose group 8 subjects on day 1 and for 7 subjects on day 8, and in the 90 mg dose group for 7 subjects (days 1 and 8)."}, "[2]": {"assay": "Phase I pharmacokinetic study: total iron binding capacity (TIBC)", "conditions": "over time and across 30, 60, 90 mg dose groups", "description": "as §1, §6\nOn day 8 following fasting for at least 1.5-2 hours beforehand the last dosing of ST10 was administered (30 mg, 60 mg or 90 mg) and blood samples collected over the following 6 h for analysis. […]\nSerum concentrations of transferrin, total iron binding capacity (TIBC), ferritin and soluble transferrin receptor; and reticulocyte haemoglobin concentrations (CHr) in whole blood were measured by central laboratories using appropriately validated methods. […]"}, "[3]": {"assay": "Phase I pharmacokinetic study: tolerability", "conditions": "doses above 30 mg and up to 90 mg twice daily, 8 days, iron-deficient subjects with active inflammatory disease", "description": "as §1, §2, §3, §4, §5"}}}
{"substance": "ferric trimaltol [ST10]", "values": [{"measurement": "maximum mean serum total iron concentration", "setting": "[1]; 30 mg oral dose group", "result": 32.3, "unit": "µmol/L"}, {"measurement": "maximum mean serum total iron concentration", "setting": "[1]; 60 mg oral dose group", "result": 49.1, "unit": "µmol/L"}, {"measurement": "maximum mean serum total iron concentration", "setting": "[1]; 90 mg oral dose group", "result": 48.7, "unit": "µmol/L"}, {"measurement": "serum total iron concentrations on Day 8 versus Day 1", "setting": "[1]; Day 8, 30, 60, 90 mg dose groups", "result": "Comparable"}, {"measurement": "total iron binding capacity, mean concentration", "setting": "[2]", "result": "approximately 70 μmol/L"}, {"measurement": "tolerability", "setting": "[3]", "result": "well tolerated"}]}
